Measured values as given in patent publication US20220088195A1, “Prevention or mitigation of T-cell bispecific antibody-related adverse effects” (Hoffmann-La Roche Inc., priority 2020, published 2022).
Entries after “also recorded” stand apart in the source; their conditions may differ.

Key:
[1] = tested on: IFN-γ, IL-2 and TNF-α release; test: Cytokine release in supernatants of the CEA-TCB killing assay (Luminex, 96 hours); type: cell-based, human; details: dasatinib above 12.5 nM, 1 nM CEA-TCB
Protocol: Cytokine release. Supernatant were collected at the endpoint (96 hours) of the assay in FIG. 1 and cytokines ((A) IFNγ, (B) IL-2, (C) TNF-α) measured by multiplex cytokine analysis (Luminex). 1 nM CEA-TCB, 1 donor.

[2] = tested on: lymphoma patient derived xenograft (PDX); test: Humanized NSG mice engrafted with lymphoma PDX: serum cytokines, body weight, tumor growth; type: in vivo
Protocol: Humanized NSG mice were engrafted with a lymphoma PDX (5 million cells, s.c.). When tumors reached 200 mm^3, mice were randomized in groups of 8 or 7 based on their tumor size. They were treated with vehicle (i.v.), 0.5 mg/kg CD19-TCB (i.v.) as a monotherapy, 20 mg/kg dasatinib (p.o.) alone or in combination with 0.5 mg/kg CD19-TCB (i.v.). The serum of each mouse in the vehicle, CD19-TCB, and CD19-TCB+dasatinib groups and of n=4 mice in the dasatinib group was collected by tail-vein bleeding 6 hrs after the first treatment with CD19-TCB.
Cytokine levels in each individual mouse from the experiment described in FIG. 37. The levels of IFN-γ (A), TNF-α (B), IL-2 (C) and IL-6 (D) were measured in the serum by multiplex cytokine analysis using Luminex. Mean of n=6-8 mice+/−SEM with *p≤0.05, **p≤0.01, ***p≤0.001 by 1 way ANOVA (Kruskal Wallis test).
Body weight loss for each individual mouse from the experiment described in FIG. 37. The change in body weight [%] is measured as a percentage of the body weight before first treatment with CD19-TCB for each mouse. Box and whiskers showing minimum to maximum values of n=6-8 mice per group.
Tumor growth curves of the experiment described in FIG. 37. Tumor growth curves were plotted from tumor volumes measured using a Caliper, mean of n=6-8 mice+SD with **p≤0.01 by 1 way ANOVA (Kruskal Wallis test).
We evaluated the impact of transient interventions with dasatinib on CD19-TCB anti-tumor activity in humanized NSG mice engrafted with a lymphoma patient derived xenograft (PDX). Therefore, mice were treated with either vehicle, 0.5 mg/kg CD19-TCB as a monotherapy, or 20 mg/kg dasatinib, alone or in combination with 0.5 mg/kg CD19-TCB (FIG. 37). Dasatinib was given one hour prior and 6 hrs after the first treatment with CD19-TCB and then twice per day for the next 2 days to prevent cytokine release, predominantly occurring upon the first infusion. Moreover, dasatinib was also administered one hour before each subsequent treatment to prevent eventual residual cytokine secretion (FIG. 37).

CD20+ B cells = test: CD19-TCB dependent B cell depletion in blood of humanized NSG mice; type: in vivo; details: 0.5 mg/kg CD19-TCB i.v. + 50 mg/kg dasatinib p.o. twice per day
Protocol: FIG. 32. Timelines and dosing schedule of in vivo experiment assessing effect of dasatinib (50 mg/kg) on CD19-TCB induced cytokine release and B cell depletion in humanized NSG mice. Humanized NSG mice were co-treated with 0.5 mg/kg CD19-TCB (i.v.) and 50 mg/kg dasatinib (p.o.) twice per day. Blood was collected by tail vein bleeding at 1.5 hrs, 6 hrs and 48 hrs after treatment with CD19-TCB. At 72 hrs, blood was collected retro-orbitally, before the termination of the experiment. N=4 mice per group.
FIG. 33. […] Representative flow cytometry dot plots of CD20+ B cells gated among human CD45+ cells in the blood (48 hrs) of animals treated with vehicle (A), 0.5 mg/kg CD19-TCB (B), or 0.5 mg/kg CD19-TCB and 50 mg/kg dasatinib (C).
FIG. 34. […] CD20+ B cell count was measured by flow cytometry in the blood of the animals from the experiment described in FIG. 32 at 48 hrs (A) and 72 hrs (B). Mean of n=4 mice+/−SEM. One way ANOVA, Kruskal Wallis test, p-value: 0.1234 (ns), 0.0332 (*), 0.0021 (**), 0.0001 (***), <0.0001 (****).
To verify whether dasatinib can prevent CD19-TCB-induced B cell depletion and cytokine release in vivo, humanized NSG mice were either treated with 0.5 mg/kg CD19-TCB or co-treated with 0.5 mg/kg CD19-TCB and 50 mg/kg dasatinib as illustrated in FIG. 32. To best mimick the pharmacodynamic profile of dasatinib in the clinic and to verify whether the resulting exposure would be sufficient to prevent CD19-TCB-induced T cell cytotoxicity and cytokine release, dasatinib was given per os twice per day.
At 48 hrs and 72 hrs, mice were bled and the CD20+ B cell count was measured by flow cytometry (FIG. 33). […] The half-life of dasatinib in blood of mice being around 6 hrs, the exposure of dasatinib was probably not sufficient to durably prevent CD19-TCB-induced T cell cytotoxicity, leading to partial activity of CD19-TCB.

CD4+ and CD8+ T cells = test: T cell proliferation (CTV dye dilution) and T cell counts in SKM-1 killing assay with HLA-A2 WT-1-TCB; type: cell-based, human
Protocol: FIG. 3. In vitro killing assay set-up and timelines. PBMCs were co-cultured with SKM-1 target cells (E:T=10:1) and 10 nM HLA-A2 WT-1-TCB. Dasatinib (100 nM) was added after 24 hours of activation. PBMCs were labelled with CellTrace™ Violet (CTV) to allow T cell proliferation assessment.
FIG. 6. T cell proliferation. In the assay of FIG. 3, proliferation of CD4+ (A) and CD8+ (B) T cells was measured by FACS 144h after stimulation with HLA-A2 WT-1 TCB by analysis of CTV dye dilution.
FIG. 7. Counts of CD4+ and CD8+ T cells. In the assay of FIG. 3, CD4+ (A) and CD8+(B) T cells counts were measured by FACS, mean of 3 donors+/−SD. paired t test, one tailed p value: 0.1234 (ns), 0.0332 (*), 0.0021 (**), 0.0002 (***), <0.0001 (****).
Furthermore, we assessed T cell proliferation 120 hours after the addition of 100 nM dasatinib in the killing assay by measuring the dilution peaks of the CellTrace™ violet (CTV) dye by flow cytometry.

[3] = tested on: IL-2, IFN-γ, TNF-α, IL-6, GM-CSF and IL-8 release; test: CD19-TCB-induced cytokine release in the SUDLH-8 assay (Luminex); type: cell-based, human; details: 100 nM dasatinib, monohydrate
Protocol: The levels of IL-2 (A), IFN-γ (B), TNF-α (C), IL-6 (D), GM-CSF (E) and IL-8 (F) were measured by Luminex in the supernatant of the assay described in FIG. 26.
FIG. 31. […] The levels of IFN-γ (A), TNF-α (B), IL-2 (C), IL-6 (D), GM-CSF (E) and IL-8 (F) were measured by Luminex in the supernatant of the assay described in FIG. 26.
(§1) The killing of CTV labelled SUDLH-8 cells was measured by flow cytometry using a Live/Dead Near Infra Red (NIR) dye. […] The expression of CD69 and CD25 were measured on CD4+ (FIG. 28) and CD8+(FIG. 29) T cells by flow cytometry as a readout for T cell activation. […] Lastly, the cytokine levels were analyzed in the supernatants of the assay by Luminex to evaluate the effect of dasatinib on CD19-TCB-induced cytokine release (FIGS. 30 and 31).

SUDLH-8 tumor cells = test: Killing assay, PBMCs + CTV labelled SUDLH-8 cells + CD19-TCB, flow cytometry 24 hrs; type: cell-based, human; details: 100 nM dasatinib, monohydrate
Protocol: FIG. 26. In vitro killing assay set-up. PBMCs were co-cultured with CellTrace™ Violet (CTV)-labelled SUDLH-8 tumor cells (E:T=10:1) and escalating concentrations of CD19-TCB in the presence and absence of 100 nM dasatinib.
FIG. 27. […] The killing of SUDLH-8 tumor cells was measured by flow cytometry using a Live Dead Near InfraRed (NIR) dye allowing for exclusion of dead cells (24 hrs) in the assay described in FIG. 26. Mean of n=3 donors+SD. One way ANOVA, Friedman test, p-value: 0.1234 (ns), 0.0332 (*), 0.0021 (**), 0.0001 (***), <0.0001 (****).
as §1

With Cc1nc(Nc2ncc(C(=O)Nc3c(C)cccc3Cl)s2)cc(N2CCN(CCO)CC2)n1 [dasatinib, N-(2-chloro-6-methylphenyl)-2-[[6-[4-(2-hydroxyethyl)-1-piperazinyl]-2-methyl-4-pyrimidinyl]amino]-5-thiazole carboxamide monohydrate] the “release of IFN-γ, IL-2 and TNF-α” value [1] was “prevented the release”, the “CD19-TCB-mediated cytokine release (IFN-γ, TNF-α, IL-2, IL-6) upon the first infusion” value ([2]; 20 mg/kg dasatinib p.o. + 0.5 mg/kg CD19-TCB i.v., serum 6 hrs) was “strongly reduced” and the body weight change ([2]; 24 hrs after the first CD19-TCB treatment, 20 mg/kg dasatinib) was “milder body weight change”. For the same compound, the “interference with CD19-TCB anti-tumor efficacy (tumor growth curves)” value ([2]; transient use of 20 mg/kg dasatinib with 0.5 mg/kg CD19-TCB) was “minimally, yet not significantly, interfered”, the “killing of CD20+ B cells by CD19-TCB (B cell count in blood)” value (“killing of CD20+ B cells by CD19-TCB” for short) (CD20+ B cells; 48 hrs, listed as Dasatinib, monohydrate) was “prevents CD19-TCB dependent B cell depletion until 48 hrs post treatment” and the “killing of CD20+ B cells by CD19-TCB” value (CD20+ B cells; 48 hrs, monohydrate) was “prevented killing”. For the same compound, the “killing of CD20+ B cells by CD19-TCB” value (CD20+ B cells; 72 hrs) was “partially restored”, the “TCB-induced T cell proliferation (CTV dilution)” value (CD4+ and CD8+ T cells; 100 nM dasatinib added at 24 h, 120 hours after addition, 10 nM HLA-A2 WT-1-TCB) was “inhibited TCB-induced T cell proliferation with a stronger impact on CD4+ T cells than CD8+ T cells” and the “CD4+ and CD8+ T cell counts” value (CD4+ and CD8+ T cells; 100 nM dasatinib versus positive control without dasatinib) was “significantly higher in positive control samples which were not treated with 100 nM dasatinib, than in samples treated with 100 nM dasatinib”. The “release of IL-2, IFN-γ, TNF-α, IL-6, GM-CSF and IL-8” value [3] was “prevents CD19-TCB-induced cytokine release; also recorded: prevented the release” and the “killing of SUDLH-8 tumor cells by CD19-TCB” value (SUDLH-8 tumor cells) was “prevented killing”.
